Reference: PubChem BioAssay AID1963438 (Molecular Pharmacology Branch, DTP, NCI, 2024)

Test system: NCI-H510 multicellular tumor spheroid growth, % test/control
Test: Anticancer human tumor NCI-H510 cell line growth inhibition [Asc];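 further: spheroids exposed to agents for 7 days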;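 on viability, T/C: 100% = DMSO vehicle control wells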
Conditions: for IC50: curve of first compound; for viability, T/C: stronger effect = lower value
Method in brief: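 Complex solid-tumor spheroids incorporating human endothelial and mesenchymal stem cells received single agents or combinations over half-log dilution ranges anchored to clinical Cmax.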

With `COc1c(OCCCN2CCOCC2)ccc2c3n(c(=NC(=O)c4cnc(N)nc4)nc12)CCN3` + CCN1C(C(=O)NC23CCC(C(=O)O)(CC2)CC3)C(c2cccc(Cl)c2F)C2(C(=O)Nc3cc(Cl)ccc32)C12CCCCC2 the IC50 (second compound 0.03 µM) was > 1000 nM, the IC50 (second compound 0.0949 µM) was > 1000 nM and the IC50 (second compound 0.3 µM) was > 1000 nM. For the same compound, the IC50 (second compound 0.949 µM) was > 1000 nM, the IC50 (second compound 3 µM) was > 1000 nM and the viability, T/C (second compound 0.03 µM, first compound 0.00316 µM) was 94.2%. The viability, T/C (second compound 0.03 µM, first compound 0.01 µM) was 112%, the viability, T/C (second compound 0.03 µM, first compound 0.0316 µM) was 96.4% and the viability, T/C (second compound 0.03 µM, first compound 0.1 µM) was 93.6%. For the same compound, the viability, T/C (second compound 0.03 µM, first compound 0.316 µM) was 70%, the viability, T/C (second compound 0.03 µM, first compound 1 µM) was 58.7% and the viability, T/C (second compound 0.0949 µM, first compound 0.00316 µM) was 94.3%. It also gave a viability, T/C (second compound 0.0949 µM, first compound 0.01 µM) of 91%, a viability, T/C (second compound 0.0949 µM, first compound 0.0316 µM) of 98.4% and a viability, T/C (second compound 0.0949 µM, first compound 0.1 µM) of 99.3%. For the same compound, the viability, T/C (second compound 0.0949 µM, first compound 0.316 µM) was 92.5%, the viability, T/C (second compound 0.0949 µM, first compound 1 µM) was 65.6% and the viability, T/C (second compound 0.3 µM, first compound 0.00316 µM) was 92.3%. The viability, T/C (second compound 0.3 µM, first compound 0.01 µM) was 101%, the viability, T/C (second compound 0.3 µM, first compound 0.0316 µM) was 105% and the viability, T/C (second compound 0.3 µM, first compound 0.1 µM) was 105%. For the same compound, the viability, T/C (second compound 0.3 µM, first compound 0.316 µM) was 95.6%, the viability, T/C (second compound 0.3 µM, first compound 1 µM) was 51.2% and the viability, T/C (second compound 0.949 µM, first compound 0.00316 µM) was 80.6%. It also gave a viability, T/C (second compound 0.949 µM, first compound 0.01 µM) of 99.5%, a viability, T/C (second compound 0.949 µM, first compound 0.0316 µM) of 114% and a viability, T/C (second compound 0.949 µM, first compound 0.1 µM) of 104%. For the same compound, the viability, T/C (second compound 0.949 µM, first compound 0.316 µM) was 62%, the viability, T/C (second compound 0.949 µM, first compound 1 µM) was 80.4% and the viability, T/C (second compound 3 µM, first compound 0.00316 µM) was 112%. The viability, T/C (second compound 3 µM, first compound 0.01 µM) was 105%, the viability, T/C (second compound 3 µM, first compound 0.0316 µM) was 73.9% and the viability, T/C (second compound 3 µM, first compound 0.1 µM) was 85%. For the same compound, the viability, T/C (second compound 3 µM, first compound 0.316 µM) was 86.5% and the viability, T/C (second compound 3 µM, first compound 1 µM) was 83.3%.
